Test results reported in US9266813B2, “Stilbenoid compound as inhibitor for squamous carcinoma and hepatoma and uses thereof” (AnnCare Bio-Tech Center Inc., priority 2013, dated 2016).
In brackets after ≈: the same amount, converted by molar mass. Where two headings read alike, the source gives them in different places.

Experiments:
[1] = tested on: CAR xenograft; assay: Xenograft antitumor study in CAR xenograft nude mice; format: in vivo, BALB/c nude mice
Excerpt: All animal experiments of the invention complied with institutional guidelines (Affidavit of Approval of Animal Use Protocol) approved by the Institutional Animal Care and Use Committee (IACUC) of China Medical University (Taichung, Taiwan). All pathogen-free four-week-old male BALB/c nude mice were purchased from the National Laboratory Animal Center (Taipei, Taiwan). These animals were housed at a constant room temperature with a regular 12-hour light/12-hour dark cycle and hereafter fed a standard rodent diet and water ad libitum.
The CAR cells (1×10^7 cells/mouse) in 0.2 mL (1:1) cultural medium and Matrigel (BD Biosciences) were subcutaneously injected into the flank of nude mice. When xenograft tumors reached approximately 50 mm^3 (at day 22 after cell inoculation), thirty two mice were randomly divided into four groups with eight mice in each group. The experimental group were given oral treatments included compound 2-4 at the dosages of 25, 50 and 100 mg/kg body weight, respectively, using an everyday 30 times (dosing regimen: QD×30, p.o.); whereas control group were given orally with 30 μL of DMSO throughout the experimental period. The tumor size (mm^3) from each mouse was determined utilizing a caliper by calculating as 0.5×length×(width)^2. At the end of treatment, all animals were anaesthetized by carbon dioxide (CO2) and sacrificed on 31st day. The tumor tissues from each mouse were removed then measured and weighed individually as previously reported.
Compound 2-4 was evaluated in the CAR xenograft nude mice by oral route (p.o.) at dose of 25, 50, and 100 mg/kg/day in a schedule of QD×30. […] At the 100 mg/kg/day dose of compound 2-4, the weight of CAR tumor was reduced down to 22% that of the vehicle control (FIG. 5).

[2] = Biochemical analysis of blood of CAR xenograft mice after 30 days of treatment; format: in vivo, BALB/c nude mice
Experimental: All mice were monitored the relative toxicity of each group after the animals were sacrificed, and whole blood samples were drawn from the heart for biochemical measurements to evaluate the safety of compound 2-4. Briefly, blood was collected from each mouse and allowed to clot and centrifuged at 1000×g for 10 minutes at room temperature for further biochemical tests including total protein, albumin, creatinine, blood urea nitrogen (BUN), uric acid and glucose.
Furthermore, after 30 days of treatment, these mice were sacrificed and their blood samples were collected for biochemical quantification of total protein, albumin, creatinine, blood urea nitrogen, uric acid and glucose.

[3] = tested on: human normal oral keratinocyte cells (OK); assay: MTT viability of normal oral keratinocytes (OK); format: cell-based; details: 0, 25, 50 and 100 μM, 72 hours, FIG. 7 (B)
Experimental: (§1) Human normal gingival fibroblasts cells (HGF) and human normal oral keratinocyte cells (OK) were acquired from Department of Dental Hygiene, China Medical University, Taiwan. HGF and OK were cultivated in DMEM.
(§2) Both HGF and OK cells (1×10^4 cells) were placed into a 96-well plate and were incubated with 0, 25, 50 and 100 μM of compound 2-4 for 24, 48 and 72 hours. For incubation with the autophagy inhibitor, cells were pretreated with […] (3-MA, 10 mM) for 1 hour, followed by treatment with or without compound 2-4 (50 and 75 μM) for 48 hours. After washing the cells, DMEM containing MTT (0.5 mg/mL) was added to detect viability. The cell viability was expressed as % of the control.
(§3) In FIG. 7, (A) indicates HGF cells and (B) indicates OK cells after exposure to various concentrations of compound 2-4 for 72 hours. The cell viability is determined by MTT assay and the data shown represent the mean±S.E.M (n=3).

[4] = tested on: Hep3B cells; assay: MTT assay, antiproliferation on Hep3B cells; format: cell-based; details: for IC50: Homo sapiens, Hep3B cells, MTT
Experimental: (§4) Antiproliferations of compound 2-4 were determined by an improved MTT assay. The CAR cells were individually plated at a density of 2×10^4 cells/well onto 96-well plates and treated with Dimethyl sulfoxide (DMSO) alone (0.5% (v/v) in media served as a vehicle control) and various concentrations (0, 25, 50, 75 and 100 μM) of compound 2-4 for 24 and 48 hours. Following the above treatments, the supernatant was discarded before a 100 μL solution of MTT (500 μg/ml) was added to each well for 4 hours at 37 °C. After incubation, the medium was replaced by the addition of 200 μL DMSO to solubilize the violet formazan crystal produced from MTT. The absorbance of the dissolved formazan grained within the cells was measured at 570 nm by a microplate reader to calculate viability (data shown as % of control).
(§5) Please refer to Table 1. Hep3B cells and CAR cells were treated by different concentrations of the compounds of the invention for 48 and 72 hours, and the antiprolifieration effect of such compounds was evaluated using MTT assay. Data are presented as IC50 (μM), the concentration of 50% proliferation-inhibitory effect.
The anti-proliferative ability of compound 2-4 in hepatocellular carcinoma was evaluated in Hep3B cells using MTT assay. Hep3B cells were treated with various concentrations of compound 2-4 for 48 and 72 hours.

[5] = tested on: Human normal gingival fibroblasts cells (HGF); assay: MTT viability of normal gingival fibroblasts (HGF); format: cell-based; details: 0, 25, 50 and 100 μM, 72 hours, FIG. 7 (A)
Experimental: as §1, §2, §3

[6] = Water solubility assay; format: physicochemical; details: read-out: Water solubility, Content
Excerpt: The water solubility of the compounds of the present invention can be determined by methods known in the art and the result is shown in Table 3.

[7] = tested on: CAR cells; assay: MTT assay, antiproliferation on cisplatin-resistant head and neck squamous carcinoma (CAR) cells; format: cell-based, human; details: for IC50: Homo sapiens, CAR cells, MTT
Experimental: The human head and neck carcinoma cell line CAL27 was obtained from American Tissue Culture Collection (ATCC). The cisplatin-resistant cell line CAR (CAL27-cisplatin resistance) was established by clonal selection of CAL27 using 10 cycles of 1 passage treatment with 10-80 μM of cisplatin (Sigma-Aldrich Corp. (St. Louis, Mo., USA) followed by a recovery period of another passage. CAR cells were cultivated in Dulbecco's modified Eagle's medium (DMEM) supplemented with 10% FBS, 100 μg/mL streptomycin, 100 U/mL penicillin G, 2 mM L-glutamine (Gibco by Life Technologies (Carlsbad, Calif., USA)) and 80 μM of cisplatin (Sigma-Aldrich Corp. (St. Louis, Mo., USA).
as §4, §5
MTT assay was utilized and CAR cells were treated with compound 2-4 in different concentration for 24, 48 and 72 hours. […] The IC50 after 72 hours of treatment was 50 μM.

[8] = 25 mg/kg p.o. QD×30, mean ± S.E.M.
[9] = 50 mg/kg p.o. QD×30, mean ± S.E.M.
[10] = 100 mg/kg p.o. QD×30, mean ± S.E.M.

In the case of COc1cc(/C=C/c2ccc(OC(=O)C(C)(CO)CO)cc2)cc(OC)c1 [Compound 2-4, 4-(3,5-dimethoxystyryl)phenyl-3-hydroxy-2-(hydroxymethyl)-2-methylpropanoate], the tumor growth suppression ([1]; p.o. 25 mg/kg/day, QD×30) is reported as “Significant tumor growth suppression”, the “weight of CAR tumor relative to vehicle control” value ([1]; p.o. 100 mg/kg/day, QD×30, FIG. 5) is reported as 22% and the “effect on CAR tumor weight” value ([1]; p.o. 25, 50, 100 mg/kg/day, QD×30, FIG. 5) is reported as “dose-dependent inhibitory effect”. The body weight change ([1]; p.o. 25, 50, 100 mg/kg/day, QD×30, FIG. 6) was “no significant body weight change”, the “effect on CAR tumor size” value ([1]; p.o. 25, 50, 100 mg/kg/day, QD×30, FIGS. 3 and 4) was “dose-dependent inhibitory effect” and the Albumin [2, 8] was 3.666 ± 0.052 g/dL. For the same compound, the Blood urea nitrogen [2, 8] was 28.200 ± 5.784 mg/dL, the Creatinine [2, 8] was 1.133 ± 0.109 mg/dL and the Glucose [2, 8] was 181.333 ± 32.067 mg/dL. The “Total Protein” value [2, 8] was 5.383 ± 0.117 g/dL, the Uric acid [2, 8] was 4.567 ± 0.784 mg/dL and the Albumin [2, 9] was 3.417 ± 0.075 g/dL. The Blood urea nitrogen [2, 9] was 30.950 ± 1.265 mg/dL, the Creatinine [2, 9] was 0.910 ± 0.077 mg/dL and the Glucose [2, 9] was 172.500 ± 6.504 mg/dL. For the same compound, the “Total Protein” value [2, 9] was 5.583 ± 0.376 g/dL, the Uric acid [2, 9] was 5.450 ± 0.878 mg/dL and the Albumin [2, 10] was 3.400 ± 0.089 g/dL. The Blood urea nitrogen [2, 10] was 29.250 ± 3.855 mg/dL, the Creatinine [2, 10] was 0.830 ± 0.128 mg/dL and the Glucose [2, 10] was 196.500 ± 8.643 mg/dL. The “Total Protein” value [2, 10] was 5.283 ± 0.194 g/dL, the Uric acid [2, 10] was 5.050 ± 1.882 mg/dL and the “toxicity when orally administered” value ([2]; CAR xenograft mice, oral, 30 days) was “very low toxicity”. The “blood analysis result versus vehicle control mice” value ([2]; after 30 days of oral treatment, Table 2) was “no significant difference in blood analysis result”, the “cell viability of OK cells” value [3] was “no viability impact is observed” and the “inhibition on cell viability in Hep3B cells” value ([4]; 48 and 72 hours, FIG. 2) was “concentration-dependent inhibition on cell viability”. The “anticancer activity compared with resveratrol and pterostilbene” value ([4]; Hep 3B and CAR cells, Table 1) was “more potent anticancer activity than resveratrol and pterostilbene”, the IC50 ([4]; 48 hours, Example 19 text, read-out: IC50 after 48 hours of treatment (FIG. 2)) was 50 µM and the IC50 ([4]; 48 hours, read-out: Hep 3B (IC50 (μM)) 48 hours) was 63.5 µM. The IC50 ([4]; 72 hours, read-out: Hep 3B (IC50 (μM)) 72 hours) was 43.8 µM, the “cell viability of HGF cells” value [5] was “no viability impact is observed” and the solubility [6] was 18 µg/mL (≈ 48.3 µM). For the same compound, the “antiproliferative effect on CAR cells” value ([7]; 24, 48 and 72 hours, FIG. 1) was “concentration- and time-dependent antiproliferative effect”, the IC50 ([7]; 48 hours, read-out: CAR (IC50 (μM)) 48 hours) was 73 µM and the IC50 ([7]; 72 hours, Example 18 text, read-out: IC50 after 72 hours of treatment (FIG. 1)) was 50 µM. The IC50 ([7]; 72 hours, read-out: CAR (IC50 (μM)) 72 hours) was 45.2 µM.
